Experimental data from US7528132B2, “Kinase inhibitors” (Schering Corporation, priority 2005, dated 2009).

The molecules below were run against T1, Akt1 (Homo sapiens, UniProt P31749) (assay: Akt1 kinase assay (33P phosphorylation of biotinylated peptide, Flash plates)). Conditions: assayed at a concentration of 1.1 mcg/mL.
T1 construct: made in house; host or cells: Sf9 insect cells (baculovirus, pBlueBacHis2B)
T1 sequence (P31749 whole entry): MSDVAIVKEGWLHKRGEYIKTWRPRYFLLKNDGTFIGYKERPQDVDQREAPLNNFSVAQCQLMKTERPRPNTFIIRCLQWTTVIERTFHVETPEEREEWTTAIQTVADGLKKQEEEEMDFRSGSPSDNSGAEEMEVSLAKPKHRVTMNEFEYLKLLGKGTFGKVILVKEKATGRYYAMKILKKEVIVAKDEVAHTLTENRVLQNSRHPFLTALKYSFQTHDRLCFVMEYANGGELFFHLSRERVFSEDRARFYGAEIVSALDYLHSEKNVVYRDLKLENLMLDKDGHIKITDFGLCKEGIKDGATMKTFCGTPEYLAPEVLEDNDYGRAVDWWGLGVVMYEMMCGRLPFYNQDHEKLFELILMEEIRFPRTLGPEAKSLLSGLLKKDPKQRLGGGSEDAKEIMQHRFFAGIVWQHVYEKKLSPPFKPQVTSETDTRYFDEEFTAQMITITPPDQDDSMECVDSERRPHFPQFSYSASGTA
Assay type: biochemical
Description: The assay described below measures the phosphorylation of a biotinylated peptide by active recombinant Akt1 and other kinase isoforms. The biotinylated peptide contains a consensus sequence derived from Akt substrate Gsk3 (Glycogen synthase kinase 3). The ^33P-labeled peptide substrate was captured by streptavidin-coated Flash plates.
Active recombinant Akt1 was expressed in Sf9 insect cells and purified as described by Kumar et al., Biochim. Biophys. Acta. Jun. 15, 2001, 1526(3), 257-268. Biotinylated peptide of the sequence Bio-ahx-RPRAASF was purchased from Syn Pep (Dublin, Calif., USA).
Cloning and Expression of Human Akt1 Sf9 Cells
Human Akt1 cDNA was amplified from a marathon-ready human lung cDNA library (Clonetech) using nested oligo primers as described below. The first round of amplification was carried out using the following primers; Akt1F1 ([…]) and Akt1R1 (TCCATC […]) and for the second round amplification, the primers of the following sequence were used; Akt1F2 (GGATCCTCGG […]) and AKT1R2 (GGTACCATCGTC […]). The PCR product was subcloned into pCRScript plasmid as a BamHI/KpnI fragment and the sequence of the cDNA was confirmed by DNA sequencing. This plasmid was used as a template for reamplification of Akt1 using appropriate primers for subcloning into pBlueBaHis2B into BamH1/EcoRI sites to generate an in frame fusion to (His)6 tag and an anti-Xpress antibody epitope tag at the N-terminus. This construct was sequenced to verify the junction sequences and used for generating a recombinant baculovirus. Growth of the recombinant virus, amplification and determination of viral titer were carried out according to the instructions from the manufacturer (InVitrogen, CA).
Purification of Akt1 from Sf9 Cells
Viral stocks were used to infect large scale Sf9 cells at a multiplicity of infection (MOI) of 2.5. Cells were maintained at 27° C. for 60 h and okadaic acid was added to the cultures to a concentration of 50 nM. Cells were harvested 4 h hours later by centrifugation at 1200 rpm for 30 min followed by freezing at −80° C. until further use. All purification steps were carried out at 4° C. Whole cell pellets were suspended in buffer A (20 mM sodium phosphate buffer pH 7.8, 500 mM NaCl, 1 mM sodium vanadate, 5 mM sodium fluoride, 40 mM β-glycerophosphate, 10 mM imidazole and protease inhibitor cocktail) and lysed using a microfluidizer. The cell extract was centrifuged at 16,000×g for 10 min to remove the debris and directly loaded onto Ni-NTA Superflow resin using a FPLC pump operated at 1 ml/min. The column was washed once with buffer A, once with wash buffer B (20 mM sodium phosphate pH 6.0, 1 mM sodium vanadate, 5 mM sodium fluoride and protease cocktail) and once with wash buffer B containing 0.05% Tween-20 followed by washing with buffer A until OD260 returned to basal level. Proteins were eluted with buffer A containing 200 mM imidazole. Fractions were analyzed by electrophoresis on 10% denaturing polyacrylamide gels and fractions containing 85% pure protein band at 60 KDa were pooled and dialyzed against buffer C (20 mM Tris-HCl pH 7.5, 0.5 mM EDTA,-2 mM DTT, 145 mM NaCl, 0.1 mM sodium vanadate, 5 mM sodium fluoride, 10 mM, β-glycerophosphate and 20% glycerol). Purified protein was stored as aliquots at −80° C. Protein concentrations were determined using BCA protein assay reagent A (Catalog #23228). To examine the identity of the proteins, 2 μg of purified protein was electrophoresed on SDS-polyacrylamide gels and stained with coomassie blue dye or transferred to nitrocellulose membrane and probed with anti-Akt and anti-phospho-specific Akt antibodies using enhanced chemiluminescence (ECL) reagent according to the protocol described by the manufacturer (Amersham).
The kinase assay was performed in 96 well plates at room temperature. Assay solutions and plates were preincubated at room temperature for 5 min. […]
For `Cc1n[nH]c2ccc(-c3nnc(N)c(N4CCN[C@@H](C(C)C)C4)n3)cc12` [Compound 7, 6-amino-5-[(S)-3-isopropylpiperazin-1-yl]-3-(3-methylindazol-5-yl)-[1,2,4]triazine], the inhibition at 1.1 µg/mL was greater than 90%.
In the case of `Cc1n[nH]c2ccc(-c3nnc(Cl)c(N4CCN[C@@H](CC(C)C)C4)n3)cc12` [Compound 24, 6-chloro-5-[(S)-3-isobutylpiperazin-1-yl]-3-(3-methylindazol-5-yl)-[1,2,4]triazine], the inhibition at 1.1 µg/mL is reported as greater than 90%.
For `Cc1n[nH]c2ccc(-c3nnc(Cl)c(N4CCN[C@@H](Cc5ccccc5)C4)n3)cc12` [Compound 13, 5-[(S)-3-benzylpiperazin-1-yl]-6-chloro-3-(3-methylindazol-5-yl)-[1,2,4]triazine], the inhibition at 1.1 µg/mL was greater than 90%.

Same assay, conditions: read-out: IC50 rating (AKT1 inhibition)
`Cc1n[nH]c2ccc(-c3nncc(N4CCN[C@H](c5ccccc5)C4)n3)cc12` [Compound 42, 3-(3-methylindazol-5-yl)-5-[(R)-3-phenylpiperazin-1-yl]-[1,2,4]triazine] showed an IC50 of 100 to 1000 nM.
For `Cc1n[nH]c2ccc(-c3nncc(N4CCCC(Cc5ccccc5)C4)n3)cc12` (stereo not shown) [Compound 59, 5-(3-benzylpiperidin-1-yl)-3-(3-methylindazol-5-yl)-[1,2,4]triazine], the IC50 was 100 to 1000 nM.
`Cc1n[nH]c2ccc(-c3nnc(Cl)c(N4CCN5CCCCC5C4)n3)cc12` (stereo not shown) [Compound 32] showed an IC50 greater than 1000 nM.
Molecule `Cc1n[nH]c2ccc(-c3nnc(Cl)c(N4CCN[C@@H](COCc5ccccc5)C4)n3)cc12` [Compound 25, 5-[(R)-3-(benzyloxymethyl)piperazin-1-yl]-6-chloro-3-(3-methylindazol-5-yl)-[1,2,4]triazine] has an IC50 greater than 1000 nM.
With `CCc1n[nH]c2ccc(-c3nncc(N4CCN[C@@H](CC(C)C)C4)n3)cc12` [Compound 79, 3-(3-ethylindazol-5-yl)-5-[(S)-3-isobutylpiperazin-1-yl]-[1,2,4]triazine] the IC50 was 100 to 1000 nM.
In the case of `COC(=O)C1CN(c2cnnc(-c3ccc4[nH]nc(C)c4c3)n2)CCN1` (stereo not shown) [Compound 39], the IC50 is reported as greater than 1000 nM.
In the case of `Cc1n[nH]c2ccc(-c3nncc(N4CCN(CCO)[C@@H](Cc5ccccc5)C4)n3)cc12` [Compound 60, 5-[(S)-3-benzyl-4-hydroxyethyl-piperazin-1-yl]-3-(3-methylindazol-5-yl)-[1,2,4]triazine], the IC50 is reported as 100 to 1000 nM.
In the case of `Cc1n[nH]c2ccc(-c3nnc(N)c(N4CCN[C@@H](C(C)C)C4)n3)cc12` [Compound 7, 6-amino-5-[(S)-3-isopropylpiperazin-1-yl]-3-(3-methylindazol-5-yl)-[1,2,4]triazine], the IC50 is reported as less than 100 nM.
`CCc1n[nH]c2ccc(-c3nncc(N4CCNCC4)n3)cc12` [Compound 78, 3-(3-ethylindazol-5-yl)-5-piperazin-1-yl-[1,2,4]triazine] gave an IC50 greater than 1000 nM.
For `Cc1n[nH]c2ccc(-c3nnc(N)c(N4CCC(N)C4)n3)cc12` (stereo not shown) [Compound 83, 6-amino-5-(3-aminopyrrolidin-1-yl)-3-(3-methylindazol-5-yl)-[1,2,4]triazine], the IC50 was 100 to 1000 nM.
`c1ccc(C[C@H]2CN(c3cnnc(-c4ccc5[nH]nc(-c6ccccc6)c5c4)n3)CCN2)cc1` [Compound 70, 5-[(S)-3-benzylpiperazin-1-yl]-3-(3-phenylindazol-5-yl)-[1,2,4]triazine] was tested, and the IC50 was greater than 1000 nM.
`Cc1n[nH]c2ccc(-c3nncc(N4CCNC(Cc5ccccc5)(Cc5ccccc5)C4)n3)cc12` [Compound 54, 5-(3,3-dibenzylpiperazin-1-yl)-3-(3-methylindazol-5-yl)-[1,2,4]triazine] gave an IC50 of 100 to 1000 nM.
For `Cc1n[nH]c2ccc(-c3nncc(N4CCNC(Cc5cccc(F)c5)C4)n3)cc12` (stereo not shown) [Compound 47, 5-[3-(3-fluorobenzyl)piperazin-1-yl]-3-(3-methylindazol-5-yl)-[1,2,4]triazine], the IC50 was less than 100 nM.
`Cc1n[nH]c2ccc(-c3nncc(N4CCN[C@@H](CO)C4)n3)cc12` [Compound 27] showed an IC50 greater than 1000 nM.
With `Cc1n[nH]c2ccc(-c3nnc(Cl)c(N4CCN[C@@H](CC(C)C)C4)n3)cc12` [Compound 24, 6-chloro-5-[(S)-3-isobutylpiperazin-1-yl]-3-(3-methylindazol-5-yl)-[1,2,4]triazine] the IC50 was less than 100 nM.
Molecule `c1ccc(-c2n[nH]c3ccc(-c4nncc(N5CCNCC5)n4)cc23)cc1` [Compound 71, 3-(3-phenylindazol-5-yl)-5-piperazin-1-yl-[1,2,4]triazine] has an IC50 of 100 to 1000 nM.
`Cc1n[nH]c2ccc(-c3nnc(N)c(N4CCNC5(CCCC5)C4)n3)cc12` [Compound 85, 6-amino-5-(6,9-diaza-spiro[4.5]dec-9-yl)-3-(3-methylindazol-5-yl)-[1,2,4]triazine] showed an IC50 of 100 to 1000 nM.
`COC(=O)C1CN(c2nc(-c3ccc4[nH]nc(C)c4c3)nnc2Cl)CCN1` (stereo not shown) [Compound 40] gave an IC50 greater than 1000 nM.
`Cc1n[nH]c2ccc(-c3nncc(N4CCN[C@@H](C(C)C)C4)n3)cc12` [Compound 19, 5-[(S)-3-isopropylpiperazin-1-yl]-3-(3-methylindazol-5-yl)-[1,2,4]triazine] showed an IC50 of less than 100 nM.
`Cc1n[nH]c2ccc(-c3nncc(N4CCC(Cc5ccccc5)C4)n3)cc12` (stereo not shown) [Compound 69, 3-(3-methylindazol-5-yl)-5-(3-benzylpyrrolidin-1-yl)-[1,2,4]triazine] gave an IC50 of 100 to 1000 nM.
Work on `Cc1n[nH]c2ccc(-c3nnc(N)c(N4CCN[C@H](c5ccccc5)C4)n3)cc12` [Compound 6, 6-amino-3-(3-methylindazol-5-yl)-5-[(R)-3-phenylpiperazin-1-yl]-[1,2,4]triazine] yielded an IC50 of 100 to 1000 nM.
For `Cc1n[nH]c2ccc(-c3nncc(N4CCNC(Cc5ccncc5)C4)n3)cc12` (stereo not shown) [Compound 68, 3-(3-methylindazol-5-yl)-5-[3-(pyridin-4-ylmethyl)piperazin-1-yl]-[1,2,4]triazine], the IC50 was 100 to 1000 nM.
In the case of `Cc1n[nH]c2ccc(-c3nnc(N)c(N4CCNC5(CCCCC5)C4)n3)cc12` [Compound 82, 6-amino-5-(1,4-diaza-spiro[5.5]undec-4-yl)-3-(3-methylindazol-5-yl)-[1,2,4]triazine], the IC50 is reported as 100 to 1000 nM.
Molecule `Cc1n[nH]c2ccc(-c3nnc(N)c(N4CC5CC4CN5)n3)cc12` (stereo not shown) [Compound 11, 6-amino-5-(2,5-diazabicyclo[2.2.1]hept-2-yl)-3-(3-methylindazol-5-yl)-[1,2,4]triazine] has an IC50 greater than 1000 nM.
Work on `CC(C)C[C@H]1CN(c2cnnc(-c3ccc4[nH]nc(C5CC5)c4c3)n2)CCN1` [Compound 76, 3-(3-cyclopropylindazol-5-yl)-5-[(S)-3-isobutylpiperazin-1-yl]-[1,2,4]triazine] yielded an IC50 of 100 to 1000 nM.
Work on `CNC1CCN(c2nc(-c3ccc4[nH]nc(C)c4c3)nnc2N)C1` (stereo not shown) [Compound 84, 6-amino-5-(3-methylaminopyrrolidin-1-yl)-3-(3-methylindazol-5-yl)-[1,2,4]triazine] yielded an IC50 of 100 to 1000 nM.
With `Cc1n[nH]c2ccc(-c3nncc(N4CCN5CCCCC5C4)n3)cc12` (stereo not shown) [Compound 30, 5-(1,4-diazabicyclo[4.4.0]dec-1-yl)-3-(3-methylindazol-5-yl)-[1,2,4]triazine] the IC50 was greater than 1000 nM.
`Cc1n[nH]c2ccc(-c3nnc(Cl)c(N4CCN[C@@H](Cc5ccccc5)C4)n3)cc12` [Compound 13, 5-[(S)-3-benzylpiperazin-1-yl]-6-chloro-3-(3-methylindazol-5-yl)-[1,2,4]triazine] was tested, and the IC50 was less than 100 nM.
In the case of `Cc1n[nH]c2ccc(-c3nnc(N)c(N4CCNCC4)n3)cc12` [Compound 1, 6-amino-3-(3-methylindazol-5-yl)-5-(piperazin-1-yl)-[1,2,4]triazine], the IC50 is reported as 100 to 1000 nM.
For `Cc1n[nH]c2ccc(-c3nnc(N)c(N4CCN[C@@H](C)C4)n3)cc12` [Compound 14, 6-amino-3-(3-methylindazol-5-yl)-5-[(S)-3-methylpiperazin-1-yl]-[1,2,4]triazine], the IC50 was 100 to 1000 nM.
Molecule `Cc1n[nH]c2ccc(-c3nncc(N4CCNC(Cc5ccccc5F)C4)n3)cc12` (stereo not shown) [Compound 48, 5-[3-(2-fluorobenzyl)piperazin-1-yl]-3-(3-methylindazol-5-yl)-[1,2,4]triazine] has an IC50 of less than 100 nM.
Molecule `CCc1n[nH]c2ccc(-c3nncc(N4CCN[C@@H](Cc5ccccc5)C4)n3)cc12` [Compound 80, 5-[(S)-3-benzylpiperazin-1-yl]-3-(3-ethylindazol-5-yl)-[1,2,4]triazine] has an IC50 of less than 100 nM.
With `c1ccc(CNc2nnc(-c3ccc4[nH]nc(-c5ccccc5)c4c3)nc2N2CCNCC2)cc1` [Compound 53, 6-Benzylamino-3-(3-phenylindazol-5-yl)-5-(piperazin-1-yl)-[1,2,4]triazine] the IC50 was greater than 1000 nM.
Work on `COC(=O)C1(Cc2ccccc2)CCCN(c2cnnc(-c3ccc4[nH]nc(C)c4c3)n2)C1` (stereo not shown) [Compound 66] yielded an IC50 greater than 1000 nM.
